Test results: paper PMC6522510 (Nature Communications, 2019)
Where a name gives a salt, the structure may show the parent alone. Read-outs that look alike come from different tables or passages of the source.

Columns and labels:
Design in all cases: species or system AML cell lines (8); Primary HTS, single concentration about 10 uM, Cell Titer Glo viability; log10 luminescence, per cent inhibition relative to cycloheximide control
Conditions in all cases: 72 h, relative to cycloheximide control, log10 luminescence, inhibitor
U937 = tested on: U937
CHRF288-11 = tested on: CHRF288-11
M07e = tested on: M07e
CMK = tested on: CMK
CMS = tested on: CMS
MV4-11 = tested on: MV4-11
MOLM-13 = tested on: MOLM-13
ML-2 = tested on: ML-2

With `C=CC[N+]1([C@H]2C[C@H]3[C@@H]4CC[C@H]5C[C@H](O)[C@@H](N6CCOCC6)C[C@]5(C)[C@H]4CC[C@]3(C)[C@H]2OC(C)=O)CCCC1` [SJ000556732-1, ROCURONIUM BROMIDE] the U937 %inh (U937) was -2.855%, the CHRF288-11 %inh (CHRF288-11) was -4.633% and the M07e %inh (M07e) was -1.372%. The CMK %inh (CMK) was -9.307%, the CMS %inh (CMS) was -2.237% and the MV4-11 %inh (MV4-11) was 0.4653%. It also gave an MOLM-13 %inh (MOLM-13) of -4.64% and an ML-2 %inh (ML-2) of -0.2233%.
In the case of `O=C(O[C@H]1C[C@H]2CC[C@@H](C1)[N+]21CCCC1)C(O)(c1ccccc1)c1ccccc1` [SJ000556733-1, TROSPIUM CHLORIDE], the U937 %inh (U937; U937 %inh, 10 µM) is reported as -2.05%, the CHRF288-11 %inh (CHRF288-11; CHRF288-11 %inh, 10 µM) is reported as 1.082% and the M07e %inh (M07e; M07e %inh, 10 µM) is reported as 0.3246%. For the same compound, the CMK %inh (CMK; CMK %inh, 10 µM) was -8.303%, the CMS %inh (CMS; CMS %inh, 10 µM) was 1.711% and the MV4-11 %inh (MV4-11; MV4-11 %inh, 10 µM) was -0.2163%. The MOLM-13 %inh (MOLM-13; MOLM-13 %inh, 10 µM) was -2.987% and the ML-2 %inh (ML-2; ML-2 %inh, 10 µM) was 2.085%.
Compound `O=C(O[C@H]1C[C@H]2CC[C@@H](C1)[N+]21CCCC1)C(O)(c1ccccc1)c1ccccc1` [SJ000556733-2, TROSPIUM CHLORIDE] has a U937 %inh (U937; U937 %inh, 10 µM) of -0.2464%, a CHRF288-11 %inh (CHRF288-11; CHRF288-11 %inh, 10 µM) of 0.2164% and an M07e %inh (M07e; M07e %inh, 10 µM) of 4.258%. The CMK %inh (CMK; CMK %inh, 10 µM) was -0.8375%, the CMS %inh (CMS; CMS %inh, 10 µM) was -2.193% and the MV4-11 %inh (MV4-11; MV4-11 %inh, 10 µM) was 1.274%. It also gave an MOLM-13 %inh (MOLM-13; MOLM-13 %inh, 10 µM) of 0.236% and an ML-2 %inh (ML-2; ML-2 %inh, 10 µM) of 4.125%.
`Cc1cn([C@@H]2C[C@@H](O)[C@H](CO)O2)c(=O)[nH]c1=O` [SJ000556735-1, TELBIVUDINE] gave a U937 %inh (U937) of 2.103%, a CHRF288-11 %inh (CHRF288-11) of 5.146% and an M07e %inh (M07e) of 0.6931%. It also gave a CMK %inh (CMK) of -3.078%, a CMS %inh (CMS) of -2.406% and an MV4-11 %inh (MV4-11) of 3.878%. The MOLM-13 %inh (MOLM-13) was -1.046% and the ML-2 %inh (ML-2) was 2.339%.
With `CO[C@H]1/C=C/O[C@@]2(C)Oc3c(C)c(O)c4c(O)c(c(/C=N/N5CCN(C6CCCC6)CC5)c(O)c4c3C2=O)NC(=O)/C(C)=C\C=C\[C@H](C)[C@H](O)[C@@H](C)[C@@H](O)[C@@H](C)[C@H](OC(C)=O)[C@@H]1C` [SJ000556738-1, RIFAPENTINE] the U937 %inh (U937; U937 %inh, 10 µM) was 33.42%, the CHRF288-11 %inh (CHRF288-11; CHRF288-11 %inh, 10 µM) was -0.1419% and the M07e %inh (M07e; M07e %inh, 10 µM) was 1.814%. The CMK %inh (CMK; CMK %inh, 10 µM) was -0.8493%, the CMS %inh (CMS; CMS %inh, 10 µM) was 9.958% and the MV4-11 %inh (MV4-11; MV4-11 %inh, 10 µM) was 4.97%. The MOLM-13 %inh (MOLM-13; MOLM-13 %inh, 10 µM) was 5.251% and the ML-2 %inh (ML-2; ML-2 %inh, 10 µM) was 6.792%.
`CO[C@H]1/C=C/O[C@@]2(C)Oc3c(C)c(O)c4c(O)c(c(/C=N/N5CCN(C6CCCC6)CC5)c(O)c4c3C2=O)NC(=O)/C(C)=C\C=C\[C@H](C)[C@H](O)[C@@H](C)[C@@H](O)[C@@H](C)[C@H](OC(C)=O)[C@@H]1C` [SJ000556738-2, RIFAPENTINE] was tested, and the U937 %inh (U937; U937 %inh, 10 µM) was 26.01%, the CHRF288-11 %inh (CHRF288-11; CHRF288-11 %inh, 10 µM) was -2.807% and the M07e %inh (M07e; M07e %inh, 10 µM) was 2.598%. For the same compound, the CMK %inh (CMK; CMK %inh, 10 µM) was -1.103%, the CMS %inh (CMS; CMS %inh, 10 µM) was 24.93% and the MV4-11 %inh (MV4-11; MV4-11 %inh, 10 µM) was 5.68%. It also gave an MOLM-13 %inh (MOLM-13; MOLM-13 %inh, 10 µM) of 7.481% and an ML-2 %inh (ML-2; ML-2 %inh, 10 µM) of 7.469%.
With `C[C@@H]1C[C@H]2[C@@H]3C[C@H](F)C4=CC(=O)C=C[C@]4(C)[C@@]3(F)[C@@H](O)C[C@]2(C)[C@@]1(OC(=O)c1ccco1)C(=O)SCF` [SJ000556747-1, FLUTICASONE FUROATE] the U937 %inh (U937) was 15.51%, the CHRF288-11 %inh (CHRF288-11) was 5.244% and the M07e %inh (M07e) was 0.03036%. It also gave a CMK %inh (CMK) of 4.028%, a CMS %inh (CMS) of 42.17% and an MV4-11 %inh (MV4-11) of 10.07%. It also gave an MOLM-13 %inh (MOLM-13) of 2.731% and an ML-2 %inh (ML-2) of 5.949%.
With `Cc1c(F)c(N2CCNC(C)C2)cc2c1c(=O)c(C(=O)O)cn2C1CC1` (stereo not shown) [SJ000556748-1, GREPAFLOXACIN] the U937 %inh (U937) was 0.03292%, the CHRF288-11 %inh (CHRF288-11) was 7.335% and the M07e %inh (M07e) was -0.4769%. For the same compound, the CMK %inh (CMK) was -2.149%, the CMS %inh (CMS) was -1.062% and the MV4-11 %inh (MV4-11) was -0.8156%. It also gave an MOLM-13 %inh (MOLM-13) of 27.08% and an ML-2 %inh (ML-2) of -2.485%.
With `Nc1nc(=O)n([C@@H]2CS[C@H](CO)O2)cc1F` [SJ000556750-1, EMTRICITABINE] the U937 %inh (U937) was -2.394%, the CHRF288-11 %inh (CHRF288-11) was 2.371% and the M07e %inh (M07e) was -0.1929%. It also gave a CMK %inh (CMK) of 2.775%, a CMS %inh (CMS) of -3.992% and an MV4-11 %inh (MV4-11) of -2.268%. For the same compound, the MOLM-13 %inh (MOLM-13) was 20.59% and the ML-2 %inh (ML-2) was 2.01%.
Compound `CCOCCn1c(N2CCCN(C)CC2)nc2ccccc21` [SJ000556751-1, EMEDASTINE DIFUMARATE] has a U937 %inh (U937) of 0.3803%, a CHRF288-11 %inh (CHRF288-11) of -0.4103% and an M07e %inh (M07e) of 0.9271%. It also gave a CMK %inh (CMK) of -0.9686%, a CMS %inh (CMS) of -0.1534% and an MV4-11 %inh (MV4-11) of -1.235%. For the same compound, the MOLM-13 %inh (MOLM-13) was 8.131% and the ML-2 %inh (ML-2) was 1.809%.
`CCCCc1ncc(/C=C(\Cc2cccs2)C(=O)O)n1Cc1ccc(C(=O)O)cc1` [SJ000556755-1, EPROSARTAN MESYLATE] showed a U937 %inh (U937) of 2.452%, a CHRF288-11 %inh (CHRF288-11) of 1.693% and an M07e %inh (M07e) of 2.786%. For the same compound, the CMK %inh (CMK) was 1.513%, the CMS %inh (CMS) was 2.254% and the MV4-11 %inh (MV4-11) was -5.649%. The MOLM-13 %inh (MOLM-13) was -0.5594% and the ML-2 %inh (ML-2) was 1.173%.
`CO/N=C1\CN(c2nc3c(cc2F)c(=O)c(C(=O)O)cn3C2CC2)CC1CN` (stereo not shown) [SJ000556758-1, GEMIFLOXACIN MESILATE] showed a U937 %inh (U937) of 9.491%, a CHRF288-11 %inh (CHRF288-11) of 4.811% and an M07e %inh (M07e) of 5.532%. The CMK %inh (CMK) was 10.74%, the CMS %inh (CMS) was 4.675% and the MV4-11 %inh (MV4-11) was 8.469%. For the same compound, the MOLM-13 %inh (MOLM-13) was 8.66% and the ML-2 %inh (ML-2) was 0.2536%.
With `CCCCCCCN(CC)CCCC(O)c1ccc(NS(C)(=O)=O)cc1` (stereo not shown) [SJ000556760-1, IBUTILIDE FUMARATE] the U937 %inh (U937) was 0.6889%, the CHRF288-11 %inh (CHRF288-11) was 6.024% and the M07e %inh (M07e) was 2.78%. The CMK %inh (CMK) was 2.977%, the CMS %inh (CMS) was 0.3403% and the MV4-11 %inh (MV4-11) was 3.1%. It also gave an MOLM-13 %inh (MOLM-13) of 2.626% and an ML-2 %inh (ML-2) of -1.379%.
`COC(C)(C)CCCC(C)C/C=C/C(C)=C/C(=O)O` (stereo not shown) [SJ000561041-1, METHOPRENE ACID] showed a U937 %inh (U937) of 1.555%, a CHRF288-11 %inh (CHRF288-11) of 30.54% and an M07e %inh (M07e) of -0.2291%. For the same compound, the CMK %inh (CMK) was 2.394%, the CMS %inh (CMS) was -2.29% and the MV4-11 %inh (MV4-11) was 6.95%. For the same compound, the MOLM-13 %inh (MOLM-13) was -0.01315% and the ML-2 %inh (ML-2) was -0.2588%.
With `O=Cc1c2[nH]c3ccccc3c2cc2[nH]c3ccccc3c12` [SJ000561043-1, 6-FORMYLINDOLO [3,2-B] CARBAZOLE] the U937 %inh (U937) was -0.0231%, the CHRF288-11 %inh (CHRF288-11) was 8.34% and the M07e %inh (M07e) was 3.515%. For the same compound, the CMK %inh (CMK) was 0.1175%, the CMS %inh (CMS) was 2.828% and the MV4-11 %inh (MV4-11) was 15.88%. It also gave an MOLM-13 %inh (MOLM-13) of 1.501% and an ML-2 %inh (ML-2) of 1.695%.
`CC(C)(O)[C@H]1O[C@H]2CC[C@@]3(C)[C@@](O)(CC[C@H]4Cc5c([nH]c6ccccc56)[C@@]43C)C2=CC1=O` [SJ000561050-1, PAXILLINE] gave a U937 %inh (U937) of 7.084%, a CHRF288-11 %inh (CHRF288-11) of 3.611% and an M07e %inh (M07e) of -0.09318%. The CMK %inh (CMK) was 7.96%, the CMS %inh (CMS) was 1.09% and the MV4-11 %inh (MV4-11) was 1.599%. For the same compound, the MOLM-13 %inh (MOLM-13) was 2.78% and the ML-2 %inh (ML-2) was 3.934%.
Work on `CC(C)[C@@H](O)CC[C@@H](C)[C@H]1CC[C@H]2[C@@H]3CC=C4C[C@@H](O)CC[C@]4(C)[C@H]3CC[C@]12C` [SJ000561051-1, 24(S)-HYDROXYCHOLESTEROL] yielded a U937 %inh (U937) of -0.5103%, a CHRF288-11 %inh (CHRF288-11) of -3.422% and an M07e %inh (M07e) of -2.462%. For the same compound, the CMK %inh (CMK) was -0.3911%, the CMS %inh (CMS) was -2.331% and the MV4-11 %inh (MV4-11) was -0.7822%. The MOLM-13 %inh (MOLM-13) was -1.323% and the ML-2 %inh (ML-2) was 0.6767%.
